Data published in paper PMC10950897, “VCF1 is a p97/VCP cofactor promoting recognition of ubiquitylated p97-UFD1-NPL4 substrates” (Nature Communications, 2024).

How the values were obtained:
[1] = system: GFP-VCF1 WT / N167A interactome, U2OS cells; assay: GFP IP mass spectrometry, comparison of VCF1 WT and N167A interactomes (WT/N167A); assay type: binding, human; settings: GFP-VCF1 WT / N167A IPs, partially denaturing RIPA buffer
Method: (§1) U2OS (catalog no. HTB-96) cells were obtained from ATCC. HEK293-EBNA1-6E cells were a kind gift from Yves Durocher (National Research Council Canada, Montreal, Canada). All mammalian cell lines were cultured under standard conditions at 37 °C and 5% CO2 in DMEM (Thermo) supplemented with 10% FBS (v/v) and penicillin-streptomycin (Thermo). Recombination cloning-compatible U2OS cells were generated using the Flp-In T-Rex Core Kit (Thermo) according to the manufacturer’s instructions and maintained under selection using Blasticidin (Invivogen) and Zeocin (Thermo). To generate cell lines stably expressing GFP-VCF1, U2OS Flp-In T-Rex cells (Thermo) were co-transfected with GFP-VCF1 constructs and pOG44 (Thermo) plasmids, followed by selection with Hygromycin (Invitrogen). Single clones were carefully screened for uniform expression of ectopic GFP-VCF1 at low levels and maintained under selection with Blasticidin and Hygromycin. To induce GFP-VCF1 expression, cells were treated with Doxycycline (DOX) (0.5 µg/ml) for 16 h. U2OS cell lines stably expressing Ub(G76V)-GFP or Ub(G76V)-GFP-20AA were described previously. A U2OS cell line stably expressing Ub(G76V)-GFP-NES was generated under G418 (Invivogen) selection. Clones with low baseline GFP expression were visually screened for low basal GFP expression. All cell lines used in this study were regularly tested negative for mycoplasma infection and were not authenticated.
(§2) Immunoblotting was performed as previously described. Immunoprecipitation (IP) of HA-tagged proteins was performed using Anti-HA Affinity matrix (Roche) under denaturing conditions, unless otherwise stated. GFP-trap and […] Fab-trap agarose (Chromotek) were used according to manufacturer’s instructions. Cell lysis was performed using RIPA buffer (140 mM NaCl; 10 mM Tris-HCl, pH 8.0; 0.1% sodium deoxycholate; 1% Triton X-100; 0.1% SDS; 1 mM EDTA; 0.5 mM EGTA) or EBC buffer (50 mM Tris, pH 7.5; 150 mM NaCl; 1 mM EDTA; 0.5% NP-40, 1 mM DTT). IPs were washed in non-denaturing buffer (50 mM Tris-HCl, pH 7.5; 150 mM NaCl; 0.5 mM EDTA). Cell lysis and IP under partially denaturing conditions were performed using denaturing buffer (20 mM Tris-HCl, pH 7.5; 50 mM NaCl; 0.5% sodium deoxycholate; 0.5% NP-40; 0.5% SDS; 1 mM EDTA). All lysis and wash buffers were supplemented with 1 mM fresh PMSF Protease Inhibitor (Thermo), complete EDTA-free protease inhibitor Cocktail Tablets (Roche), 1.25 mM N-ethylmaleimide (Sigma) and 50 µM PR-619 (Calbiochem).
(§3) GFP-Trap agarose (Chromotek) pulldowns were subjected to partial on-bead digestion for peptide elution, by addition of 100 µl of elution buffer (50 mM Tris, pH 7.5; 2 M urea; 2 mM DTT; 20 µg/ml trypsin) and incubation at 37 °C for 30 min. To carry out alkylation, 25 mM CAA was added to the samples, which were then left to digest overnight at room temperature. Digestion was halted by introducing 1% TFA. Purification and desalting of peptides were done using SDB-RPS StageTips. This process required preparing two layers of SDB-RPS with 100 µl of wash buffer (0.2% TFA in H2O), onto which the peptides were loaded. After centrifugation for 5 min at 500 × g, peptides were washed using 150 µl wash buffer, eluted with 50 µl elution buffer (80% ACN; 1% ammonia) and vacuum-dried.
(§4) Liquid chromatography-mass spectrometry (LC-MS) analysis was conducted using an EASY-nLC-1200 system (Thermo Fisher Scientific), coupled with a timsTOF Pro spectrometer and a nano-electrospray ion source (Bruker Daltonik). […]

Ub(G76V)-GFP, U2OS cells = assay: QIBC of Ub(G76V)-GFP after siRNA; assay type: cell-based, human; settings: siRNA 20 nM, QIBC >10,000 cells
Method: as §1, with “Clones with low baseline GFP expression were visually screened for low basal GFP expression. All cell lines used in this study were regularly tested negative for mycoplasma infection and were not authenticated.” left out
Mammalian cells grown on coverslips were fixed in formalin buffer (VWR) for 15 min at room temperature (RT). […] Quantitative image-based cytometry (QIBC) was performed as described. […]

[2] = system: GFP-VCF1 WT interactome, U2OS cells; assay: GFP IP mass spectrometry of VCF1-interacting proteins, partially denaturing RIPA buffer (+DOX/-DOX); assay type: binding, human
Method: as §1, with “All cell lines used in this study were regularly tested negative for mycoplasma infection and were not authenticated.” left out

[3] = system: GFP-VCF1 WT interactome, U2OS cells; assay: GFP IP mass spectrometry of VCF1-interacting proteins, non-denaturing EBC buffer (+DOX/-DOX); assay type: binding, human
Method: as §1, §2, §3, §4

[4] = system: p97 (His6-p97 WT and N-domain mutants); assay: Peptide/protein pulldown with purified WT or mutant His6-p97 (VRM, VIM, VBM, p47); assay type: binding, human; settings: peptides on StrepTactin agarose (p47: protein), purified WT or mutant His6-p97, RIPA wash
Method: All in vitro binding experiments were performed in EBC or RIPA buffer as indicated. Recombinant Biotin-tagged K48-linked poly-ubiquitin chains (2−7) and K48-linked poly-ubiquitin chains (2−16) were purchased from R&D Systems and Enzo Life Science, respectively. Recombinant proteins were incubated with Strep-Tactin Sepharose (IBA), Glutathione agarose (Gold Biotechnology) or […] Fab-trap agarose (ChromoTek) overnight on an end-over-end rotator at 4 °C, washed six times with EBC or RIPA buffer, and resuspended in 2×Laemmli sample buffer. For p97, VCF1 or p47 pulldowns, antibodies (0.5 µg/sample) were coupled to agarose beads, incubated with recombinant proteins or cell lysates and washed with the indicated buffer. To assess p97-UFD1-NPL4 binding to ubiquitylated proteins in total cell extracts, U2OS cells were lysed in EBC buffer supplemented with protease and phosphatase inhibitors, sonicated and incubated on ice for 10 min. Lysates were cleared by centrifugation for 10 min at 16,100 × g. […]
Peptides were coupled to beads for a minimum of 2 h at 4 °C with rotation, blocked in BSA (New England Biolabs) and washed three times for 1 min, before incubation overnight at 4 °C with whole cell lysate or purified proteins. Beads were then washed three times for 1 min and bound material was eluted in 2×Laemmli sample buffer and analyzed by immunoblotting.

[5] = system: p97 with poly-ubiquitylated mEos3.2; assay: In vitro p97 unfoldase assay (mEos3.2); assay type: biochemical, human; settings: p97 100 nM hexamer, VCF1 300 nM, substrate 35 nM, 37 °C
Method: Di-ubiquitin-fused mEos3.2 fluorescent protein (diUb-mEos3.2) and ubiquitylation cascade proteins mUbe1, gpc78-ubc7 fusion and ubiquitin were recombinantly expressed in E. coli and purified as described previously. diUb-mEos3.2 substrate was enzymatically polyubiquitylated as described previously. […] The unfolding activity of p97 was monitored in vitro by measuring the decrease in diUb^n-mEos3.2 fluorescence. For this, diUb^n-mEos3.2 (35 nM), p97 (100 nM hexamer), UFD1-NPL4 (500 nM) and VCF1 (300 nM) were mixed as indicated in Eos assay buffer (50 mM HEPES, pH 7.5; 150 mM KCl; 2 mM MgCl2; 5% glycerol; 1 mM DTT) and pre-warmed to 37 °C for 5 min before ATP (2 mM) was added to start the reaction. Unfolding of red mEos3.2 fluorescence was measured every 15 s in a Varian Cary Eclipse spectrofluorometer (excitation: 500 nm; emission: 520 nm) and normalized to the first value after addition of ATP.

[6] = system: p97-UFD1-NPL4 binding to K48-Ub2-7; assay: FLAG IP: p97-UFD1-NPL4 binding to K48-linked ubiquitin chains, purified proteins; assay type: biochemical, human; settings: purified proteins, FLAG IP
Method: (§5) All in vitro binding experiments were performed in EBC or RIPA buffer as indicated. Recombinant Biotin-tagged K48-linked poly-ubiquitin chains (2−7) and K48-linked poly-ubiquitin chains (2−16) were purchased from R&D Systems and Enzo Life Science, respectively. Recombinant proteins were incubated with Strep-Tactin Sepharose (IBA), Glutathione agarose (Gold Biotechnology) or […] Fab-trap agarose (ChromoTek) overnight on an end-over-end rotator at 4 °C, washed six times with EBC or RIPA buffer, and resuspended in 2×Laemmli sample buffer. For p97, VCF1 or p47 pulldowns, antibodies (0.5 µg/sample) were coupled to agarose beads, incubated with recombinant proteins or cell lysates and washed with the indicated buffer. To assess p97-UFD1-NPL4 binding to ubiquitylated proteins in total cell extracts, U2OS cells were lysed in EBC buffer supplemented with protease and phosphatase inhibitors, sonicated and incubated on ice for 10 min. Lysates were cleared by centrifugation for 10 min at 16,100 × g. Cell lysate (40 µg) was added to recombinant proteins in EBC buffer, incubated overnight on the rotator with […] Fab-trap agarose (ChromoTek), and beads were washed six times.

[7] = system: p97-UFD1-NPL4 binding to ubiquitylated proteins; assay: FLAG IP: p97-UFD1-NPL4 binding to ubiquitylated proteins in U2OS cell extracts; assay type: biochemical, human; settings: U2OS total cell extracts, EBC buffer
Method: as §5

p97 = assay: GFP IP of GFP-VCF1 alanine mutants from U2OS cells; assay type: binding, human; settings: full-length GFP-VCF1, U2OS
Method: as §2

For FLNA, the “Relative protein level (log2) WT/MUT” value [1] was 3.526 log2.

For 5’-AGCCAGCUCUUCCAUCUUA-3’ [p47 siRNA], the “effect on Ub(G76V)-GFP level” value (Ub(G76V)-GFP, U2OS cells) was “had no effect”.

With G6PD the “Relative protein level (log2) WT/MUT” value [1] was 4.291 log2.

Protein FAM104A was tested, and the “Relative protein level (log2) WT/noDox” value [2] was 3.522 log2 and the “Relative protein level (log2) WT/noDox” value [3] was 4.7326 log2.

With “Transitional endoplasmic reticulum ATPase [VCP]” the “Relative protein level (log2) WT/noDox” value [2] was 4.192 log2, the “Relative protein level (log2) WT/noDox” value [3] was 3.764 log2 and the “Relative protein level (log2) WT/MUT” value [1] was 7.367 log2.

For “NLTSEELRKRREAYFEKQQQK [VBM, biotinylated VBM peptide of ATXN3 aa275-295]”, the “dependence of binding on p97 Y143” value [4] was “required for binding to all three motifs”.

With “VCF1-p97 complex: complex of VCF1 and p97” the “unfolding of poly-ubiquitylated mEos3.2 without UFD1-NPL4” value [5] was “unable to unfold a poly-ubiquitylated fluorescent model substrate (mEos3.2)”.

For 40S ribosomal protein S29 [RPS29], the “Relative protein level (log2) WT/noDox” value [3] was 2.611 log2.

In the case of “mutation of the VRM: VCF1 with mutated VRM (N167A by Fig. 5c reply)”, the “effect on p97-UFD1-NPL4 binding to K48 ubiquitin chains” value [6] is reported as “abrogated” and the “effect on p97-UFD1-NPL4 binding to ubiquitylated proteins” value [7] is reported as “abrogated”.

For “H174: alanine mutant of residue H174 in full-length VCF1”, the “effect of alanine scan on p97 binding” value (p97) was “essential for VCF1 binding to p97”.

In the case of “Histone H3.1 [HIST1H3A;HIST2H3A;HIST3H3;H3F3A;H3F3B]”, the “Relative protein level (log2) WT/noDox” value [3] is reported as 5.652 log2.

With “PTPDLEEKRAKLAEAAERRQKEAAS [VIM, biotinylated VIM peptide of SVIP aa14-39]” the “dependence of binding on p97 Y143” value [4] was “required for binding to all three motifs”.

With AHNAK the “Relative protein level (log2) WT/MUT” value [1] was 2.811 log2.

With 60S ribosomal protein L19 [RPL19] the “Relative protein level (log2) WT/noDox” value [3] was 2.902 log2.

With “L170: alanine mutant of residue L170 in full-length VCF1” the “effect of alanine scan on p97 binding” value (p97) was “essential for VCF1 binding to p97”.
